According to article PMC4394749 (Journal of medicinal chemistry, 2015):
Like-named read-outs stand apart in the source and are kept apart here.

What was measured:
PC-3 cells [1] = assay: Immunofluorescence staining of microtubules in PC-3 cells; format: cell-based, human; details: PC-3, 24 h; for microtubule morphology: equitoxic concentrations: 0.2 µM 4, 0.2 µM CA-4, 5 µM VIN, 0.2 µM PXL; for dose-dependent effects on microtubule morphology: compounds 0.2, 2 or 20 µM, CA-4 0.002 or 20 µM
[2] = target: ZR-75-1 (estrogen-receptor-positive, HER2-positive breast cancer); details: read-out: IC50 ZR-75-1; SRB; compound marked 'See ref [15]'; cited from earlier work
[3] = tested on: KB (epidermoid carcinoma of the nasopharynx); details: read-out: IC50 KB; SRB; compound marked 'See ref [15]'; cited from earlier work
A549 (lung carcinoma) [4] = details: read-out: IC50 A549; SRB; compound marked 'See ref [15]'; cited from earlier work
KB-VIN cells [5] = assay: Cell cycle analysis by flow cytometry; format: cell-based, human; details: 6 or 24 h, PXL 3 µM, 4 0.5 µM, 8 2 µM
PC-3 (prostate cancer) [6] = details: read-out: IC50 PC-3; SRB; compound marked 'See ref [15]'; cited from earlier work
PC-3 cells [7] = assay: Cell cycle analysis by flow cytometry; format: cell-based, human; details: 2 µM, 24 h
[8] = tested on: HCT-8 (human colon adenocarcinoma); details: read-out: IC50 HCT-8; SRB; compound marked 'See ref [15]'; cited from earlier work
[9] = tested on: MDA-MB-231 (triple-negative breast cancer); details: read-out: IC50 MDA-MB-231; SRB; compound marked 'See ref [15]'; cited from earlier work
[10] = target: MCF-7 (estrogen-receptor-positive, HER2-negative breast cancer); details: read-out: IC50 MCF-7; SRB; compound marked 'See ref [15]'; cited from earlier work
[11] = tested on: SK-BR-3 (HER2-overexpressing breast cancer); details: read-out: IC50 SK-BR3; SRB; compound marked 'See ref [15]'; cited from earlier work
[12] = tested on: HepG2 (hepatocellular carcinoma); details: read-out: IC50 Hep-G2; SRB; compound marked 'See ref [15]'; cited from earlier work
KB cells = assay: Cell cycle analysis by flow cytometry; format: cell-based, human; details: 6 or 24 h, PXL 0.02 µM, 4 0.5 µM, 8 2 µM
[13] = tested on: KB-VIN (P-gp-overexpressing MDR subline of KB); details: read-out: IC50 KB-VIN; SRB; compound marked 'See ref [15]'; cited from earlier work
[14] = tested on: KB (epidermoid carcinoma of the nasopharynx); assay: SRB antiproliferative assay, KB; format: cell-based, human; details: read-out: IC50 KB, 72 h
[15] = tested on: SK-BR-3 (HER2-overexpressing breast cancer); assay: SRB antiproliferative assay, SK-BR-3; format: cell-based, human; details: read-out: IC50 SK-BR3, 72 h
[16] = tested on: MCF-7 (estrogen-receptor-positive, HER2-negative breast cancer); assay: SRB antiproliferative assay, MCF-7; format: cell-based, human; details: read-out: IC50 MCF-7, 72 h
[17] = tested on: HepG2 (hepatocellular carcinoma); assay: SRB antiproliferative assay, HepG2; format: cell-based, human; details: for IC50: read-out: IC50 Hep-G2, 72 h
[18] = tested on: HCT-8 (human colon adenocarcinoma); assay: SRB antiproliferative assay, HCT-8; format: cell-based; details: SRB, 72 h; for IC50: read-out: IC50 HCT-8
bovine brain tubulin [19] = target: T1, bovine brain tubulin (Bos taurus, UniProt P81947+Q6B856); assay: Inhibition of purified tubulin assembly; format: biochemical
T1 sequence (P81947 whole entry): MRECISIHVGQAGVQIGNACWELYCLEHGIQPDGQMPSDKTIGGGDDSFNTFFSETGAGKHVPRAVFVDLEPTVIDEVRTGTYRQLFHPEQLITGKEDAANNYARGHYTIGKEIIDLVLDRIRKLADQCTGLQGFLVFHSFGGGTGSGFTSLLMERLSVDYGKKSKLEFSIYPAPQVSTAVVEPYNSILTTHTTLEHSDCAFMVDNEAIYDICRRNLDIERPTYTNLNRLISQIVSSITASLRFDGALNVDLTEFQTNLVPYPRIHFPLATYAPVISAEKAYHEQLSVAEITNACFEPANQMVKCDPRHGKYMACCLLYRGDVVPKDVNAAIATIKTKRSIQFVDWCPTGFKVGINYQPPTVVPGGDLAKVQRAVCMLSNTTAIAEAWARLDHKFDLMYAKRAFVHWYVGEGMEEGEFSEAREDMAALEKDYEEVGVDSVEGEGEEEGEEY
T1 sequence (Q6B856 whole entry): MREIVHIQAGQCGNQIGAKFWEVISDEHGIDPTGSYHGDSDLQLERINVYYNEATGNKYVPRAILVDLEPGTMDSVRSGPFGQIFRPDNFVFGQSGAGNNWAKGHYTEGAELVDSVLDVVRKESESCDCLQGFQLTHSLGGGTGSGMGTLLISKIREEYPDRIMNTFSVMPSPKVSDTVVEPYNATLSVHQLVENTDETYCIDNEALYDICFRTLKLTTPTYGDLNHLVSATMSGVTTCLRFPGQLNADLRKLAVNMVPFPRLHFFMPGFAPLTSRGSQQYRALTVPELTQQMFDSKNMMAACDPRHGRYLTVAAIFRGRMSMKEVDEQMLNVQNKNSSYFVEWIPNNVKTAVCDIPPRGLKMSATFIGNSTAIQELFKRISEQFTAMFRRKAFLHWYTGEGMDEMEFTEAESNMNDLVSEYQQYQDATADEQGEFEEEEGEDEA

[20] = tested on: MDA-MB-231 (triple-negative breast cancer); assay: SRB antiproliferative assay, MDA-MB-231; format: cell-based, human; details: read-out: IC50 MDA-MB-231, 72 h
bovine brain tubulin [21] = target: T1, bovine brain tubulin; assay: Inhibition of [3H]colchicine binding to tubulin; details: for ICB, percent inhibition of colchicine binding: 5 µM [3H]colchicine, 1 µM tubulin, 5 µM test compound
A549 (lung carcinoma) [22] = assay: SRB antiproliferative assay, A549; format: cell-based, human; details: read-out: IC50 A549, 72 h
[23] = tested on: ZR-75-1 (estrogen-receptor-positive, HER2-positive breast cancer); assay: SRB antiproliferative assay, ZR-75-1; format: cell-based, human; details: read-out: IC50 ZR-75-1, 72 h
PC-3 (prostate cancer) [24] = assay: SRB antiproliferative assay, PC-3; format: cell-based, human; details: read-out: IC50 PC-3; SRB, 72 h
[25] = tested on: KB-VIN (P-gp-overexpressing MDR subline of KB); assay: SRB antiproliferative assay, KB-VIN; format: cell-based, human; details: read-out: IC50 KB-VIN, 72 h
human tumor cell lines = assay: SRB antiproliferative assay, comparison across tumor cell lines; format: cell-based
[26] = tested on: tumor cell lines overexpressing P-gp; details: cited from earlier work
KB-VIN cells [27] = assay: Tubulin assembly in KB-VIN cells; format: cell-based, human; details: data not shown

For `CCC1=C(O)c2c(oc(-c3csc4ccccc34)cc2=O)C(CC)(CC)C1=O` [Compound 4, 2-(benzo[b]thiophene-3′-yl)-6,8,8-triethyldesmosdumotin B], the microtubule morphology (PC-3 cells [1]) is listed as “induced depolymerization of cytosolic microtubules as well monopolar (arrow heads) or multipolar spindle formations in the G2/M-phase”, the “dose-dependent effects on microtubule morphology” value (PC-3 cells [1]) is listed as “Dose-dependent disruption of both interphase microtubules and spindles” and the IC50 [2] is listed as 850 nM. The IC50 [3] was 80 nM, the IC50 (A549 (lung carcinoma) [4]) was 60 nM and the “effect on cell cycle distribution” value (KB-VIN cells [5]) was “Accumulation of G2/M phase as well as S phase cells”. For the same compound, the IC50 (PC-3 (prostate cancer) [6]) was 160 nM, the “effect on cell cycle distribution” value (PC-3 cells [7]) was “efficiently induced accumulation of G2/M phase cells” and the IC50 [8] was 130 nM. The IC50 [9] was 700 nM, the IC50 [10] was 720 nM and the IC50 [11] was 500 nM. The IC50 [12] was 130 nM, the “effect on cell cycle distribution” value (KB cells) was “Accumulation of G2/M phase as well as S phase cells” and the IC50 [13] was 70 nM.
With `CCC1=C(O)c2c(oc(-c3csc4cccc(O)c34)cc2=O)C(CC)(CC)C1=O` [Compound 6, 2-(4′-Hydroxybenzo[b]thiophen-3′-yl)-6,8,8-triethyldesmos-dumotin B] the IC50 [14] was 2010 nM, the “dose-dependent effects on microtubule morphology” value (PC-3 cells [1]) was “Dose-dependent disruption of both interphase microtubules and spindles” and the IC50 [15] was 650 nM. For the same compound, the IC50 [16] was 2750 nM, the IC50 [17] was 1290 nM and the IC50 [18] was 1710 nM. The “inhibitory effect on tubulin assembly, fold greater than 8” value (bovine brain tubulin [19]; 6 compared with 8) was 2 fold, the IC50 [20] was 710 nM and the “ICB, percent inhibition of colchicine binding” value (bovine brain tubulin [21]) was 70%. The “inhibitory effect on colchicine binding, fold greater than 8” value (bovine brain tubulin [21]; 6 compared with 8) was 2 fold, the IC50 (A549 (lung carcinoma) [22]) was 1780 nM and the “effect on cell cycle distribution” value (PC-3 cells [7]) was “efficiently induced accumulation of G2/M phase cells”. It also gave an IC50 [23] of 11600 nM and an IC50 (PC-3 (prostate cancer) [24]) of 1730 nM.
Work on `CCC1=C(O)c2c(oc(-c3ccc4cc(O)ccc4c3)cc2=O)C(CC)(CC)C1=O` [Compound 19, 2-(6′-Hydroxynaphthalen-2′-yl)-6,8,8-triethyldesmosdumo-tin B] yielded an IC50 [14] of 19900 nM, an IC50 [15] of 13800 nM and an IC50 [17] of 13400 nM. For the same compound, the IC50 [18] was 14100 nM, the IC50 (A549 (lung carcinoma) [22]) was 14900 nM and the IC50 [25] was 13700 nM. For the same compound, the “fold less active than 15 and 16” value (human tumor cell lines; generally, over the tested cell lines) was ~10 fold and the IC50 (PC-3 (prostate cancer) [24]) was 12900 nM.
Compound `CCC1=C(O)c2c(oc(-c3csc4c(OC)cccc34)cc2=O)C(CC)(CC)C1=O` [Compound 12, 2-(7′-Methoxybenzo[b]thiophen-3′-yl)-6,8,8-triethyldes-mosdumotin B] has an IC50 [14] of 12100 nM, an IC50 [15] of 7970 nM and an IC50 [16] of 7220 nM. For the same compound, the “IC50 Hep-G2” value ([17]; 72 h) was “NA (NA, not active (IC50 > 10 µg/mL))”, the “IC50 HCT-8” value [18] was “NA (NA, not active (IC50 > 10 µg/mL))” and the IC50 [20] was 8170 nM. For the same compound, the IC50 (A549 (lung carcinoma) [22]) was 15800 nM, the IC50 [25] was 10700 nM and the IC50 [23] was 9810 nM. The IC50 (PC-3 (prostate cancer) [24]) was 8510 nM.
For `CCC1=C(O)c2c(oc(-c3ccc(O)c4ccccc34)cc2=O)C(CC)(CC)C1=O` [Compound 16, 2-(4′-Hydroxynaphthalen-1′-yl)-6,8,8-triethyldesmosdumo-tin B], the IC50 [14] was 740 nM, the IC50 [17] was 370 nM and the IC50 [18] was 1020 nM. For the same compound, the “ICB, percent inhibition of colchicine binding” value (bovine brain tubulin [21]) was 54%, the IC50 (A549 (lung carcinoma) [22]) was 940 nM and the IC50 [25] was 450 nM. For the same compound, the “antiproliferative effect, times greater than parent compound 5” value (human tumor cell lines; HepG2, KB and KB-VIN) was 2–6 times and the IC50 (PC-3 (prostate cancer) [24]) was 1110 nM.
For `CCC1=C(O)c2c(oc(-c3ccccc3)cc2=O)C(CC)(CC)C1=O` [Compound 2, 6,8,8-triethyldesmosdumotin B], the “selective index (SI), IC50 against non-MDR cells divided by IC50 against MDR cells” value [26] is given as > 220.
For `CC1=C(O)C(C)(C)c2oc(-c3ccccc3)cc(=O)c2C1=O` [Compound 1, Desmosdumotin B, reference compound], the IC50 [14] was > 135000 nM, the IC50 [15] was > 40000 nM and the IC50 [16] was > 40000 nM. For the same compound, the “ITA, inhibition of purified tubulin assembly, EC50” value (bovine brain tubulin [19]; 10 µM tubulin, 0.4 mM GTP, 30 °C, NA = not active) was “no effects on tubulin assembly”, the IC50 [20] was > 40000 nM and the IC50 (A549 (lung carcinoma) [22]) was > 40000 nM. The “effect on tubulin assembly in cells” value (KB-VIN cells [27]) was “no effects on tubulin assembly”, the “selective index (SI), IC50 against non-MDR cells divided by IC50 against MDR cells” value [26] was > 20 and the IC50 [25] was 6760 nM. For the same compound, the IC50 [23] was > 40000 nM and the IC50 (PC-3 (prostate cancer) [24]) was > 40000 nM.
With `CC(=O)O[C@H]1C(=O)[C@@]2(C)[C@H]([C@H](OC(=O)c3ccccc3)[C@]3(O)C[C@H](OC(=O)[C@H](O)[C@@H](NC(=O)c4ccccc4)c4ccccc4)C(C)=C1C3(C)C)[C@]1(OC(C)=O)CO[C@@H]1C[C@@H]2O` [PXL, paclitaxel, reference compound] the microtubule morphology (PC-3 cells [1]) was “inhibited the onset of mitosis and arrested cells at prometaphase with condensed chromosomes”, the “effect on cell cycle distribution” value (KB-VIN cells [5]) was “did not show any effect” and the “effect on cell cycle distribution” value (KB cells) was “significantly impacted the cell cycle”.
